Experimental data from patent US9216157B2, “Chewing gum in the form of multi-layer tablets” (Jagotec AG, priority 2003, dated 2015).

Key:
[1] = Evaluation of release of active component in vivo (chewing by volunteers, residue analysed); parameters: species or system human; details: for Caffeine released in vivo (average): average of 3 volunteers
Description: To establish the release of active component from the chewing gum, the tablets were tested by a panel of 3 volunteers. For each test, the volunteer was asked to chew one piece of gum for a set time. After that time the gum was ground, and the active component content analysed. The in vivo tests were conducted with the following chewing times: 5, 10, 15, 20, 30 and 40 minutes. The gum residue was weighed, frozen and finely ground. An exactly weighed amount of this powder was then subjected to the dissolution test according to the American Pharmacopoeia, using 1000 mL of water at 37° as dissolving fluid, and a paddle at 100 rpm. The test was performed by the spectrophotometry method, operating at 273 nm. The amount of active component released in vivo was determined by subtracting the amount of caffeine in the residue from the amount present in the pharmaceutical form.

[2] = Dissolution test according to the American Pharmacopoeia (paddle, 100 rpm, 1000 mL water, 37°); format: physicochemical
Description: The tablets were then subjected to the dissolution test according to the American Pharmacopoeia method, using 1000 mL of water at 37° as dissolving fluid and a paddle at 100 rpm. The test was performed by the spectrophotometry method, operating at 280 nm.

[3] = Example 3 tablet, chewing time 5 minutes
[4] = Example 3 tablet, chewing time 10 minutes
[5] = Example 3 tablet, chewing time 15 minutes
[6] = Example 3 tablet, chewing time 20 minutes
[7] = Example 3 tablet, chewing time 30 minutes
[8] = Example 3 tablet, chewing time 40 minutes
[9] = Example 5 four-layer tablets (50 mg levodopa, 12.5 mg carbidopa), time 0 min
[10] = Example 5 four-layer tablets, time 5 min
[11] = Example 5 four-layer tablets, time 15 min
[12] = Example 5 four-layer tablets, time 20 min
[13] = Example 5 four-layer tablets, time 25 min
[14] = Example 5 four-layer tablets, time 30 min
[15] = Example 5 four-layer tablets, time 35 min
[16] = Example 5 four-layer tablets, time 40 min

For `Cn1c(=O)c2c(ncn2C)n(C)c1=O` [Caffeine], which “Caffeine released in vivo, Volunteer 2” value [1, 3] is on record?
The value was 77.02%.

And the “Caffeine released in vivo, Volunteer 3” value [1, 3]?
Its value is 75.07%.

What about the “Caffeine released in vivo (average)” value [1, 3] of the same molecule?
Its value is 74.54%.

What about the “Caffeine released in vivo, Volunteer 1” value [1, 4] of the same molecule?
Its value is 86.03%.

What about the “Caffeine released in vivo, Volunteer 2” value [1, 4] of the same molecule?
Its value is 83.66%.

And the “Caffeine released in vivo, Volunteer 3” value [1, 4]?
Its value is 84.94%.

And the “Caffeine released in vivo (average)” value [1, 4]?
The value was 84.88%.

And the “Caffeine released in vivo, Volunteer 1” value [1, 5]?
The value was 90.18%.

What about the “Caffeine released in vivo, Volunteer 2” value [1, 5] of the same molecule?
The value was 90.97%.

And the “Caffeine released in vivo, Volunteer 3” value [1, 5]?
The value was 91.07%.

What about the “Caffeine released in vivo (average)” value [1, 5] of the same molecule?
Its value is 90.74%.

What about the “Caffeine released in vivo, Volunteer 1” value [1, 6] of the same molecule?
Its value is 89.45%.

What about the “Caffeine released in vivo, Volunteer 2” value [1, 6] of the same molecule?
Its value is 91.58%.

What about the “Caffeine released in vivo, Volunteer 3” value [1, 6] of the same molecule?
Its value is 89.61%.

What about the “Caffeine released in vivo (average)” value [1, 6] of the same molecule?
Its value is 90.21%.

And the “Caffeine released in vivo, Volunteer 1” value [1, 7]?
Its value is 93.92%.

And the “Caffeine released in vivo, Volunteer 2” value [1, 7]?
The value was 92.25%.

What about the “Caffeine released in vivo, Volunteer 3” value [1, 7] of the same molecule?
The value was 92.49%.

And the “Caffeine released in vivo (average)” value [1, 7]?
Its value is 92.89%.

What about the “Caffeine released in vivo, Volunteer 1” value [1, 8] of the same molecule?
The value was 92.79%.

And the “Caffeine released in vivo, Volunteer 2” value [1, 8]?
The value was 93.34%.

And the “Caffeine released in vivo, Volunteer 3” value [1, 8]?
The value was 92.34%.

And the “Caffeine released in vivo (average)” value [1, 8]?
The value was 92.82%.

What about the “Caffeine released in vivo, Volunteer 1” value ([1]; Example 3 three-layer chewing gum tablet, 10 mg caffeine, chewing time 5 minutes) of the same molecule?
Its value is 71.52%.

Which “percentage released by the tablets” value [2, 9] does the source give for `C[C@@](Cc1ccc(O)c(O)c1)(NN)C(=O)O` [carbidopa, Carbidopa] here?
Its value is 0.00%.

What about the “percentage released by the tablets” value [2, 10] of the same molecule?
Its value is 78.23%.

And the “percentage released by the tablets” value [2, 11]?
The value was 92.63%.

And the “percentage released by the tablets” value [2, 12]?
Its value is 94.97%.

What about the “percentage released by the tablets” value [2, 13] of the same molecule?
The value was 96.55%.

What about the “percentage released by the tablets” value [2, 14] of the same molecule?
The value was 98.18%.

And the “percentage released by the tablets” value [2, 15]?
The value was 98.77%.

What about the “percentage released by the tablets” value [2, 16] of the same molecule?
The value was 100.00%.

Which “percentage released by the tablets” value [2, 9] does the source give for `N[C@@H](Cc1ccc(O)c(O)c1)C(=O)O` [levodopa, Levodopa] here?
Its value is 0.00%.

What about the “percentage released by the tablets” value [2, 10] of the same molecule?
Its value is 63.52%.

And the “percentage released by the tablets” value [2, 11]?
Its value is 90.00%.

What about the “percentage released by the tablets” value [2, 12] of the same molecule?
The value was 92.47%.

What about the “percentage released by the tablets” value [2, 13] of the same molecule?
The value was 94.04%.

What about the “percentage released by the tablets” value [2, 14] of the same molecule?
Its value is 94.90%.

What about the “percentage released by the tablets” value [2, 15] of the same molecule?
Its value is 95.66%.

And the “percentage released by the tablets” value [2, 16]?
The value was 96.28%.
